Test results taken from patent EP4790048A1, “S1PR4 REGULATOR COMPOUND FOR AUTOIMMUNE DISEASE TREATMENT AND APPLICATION THEREOF” (Shengyuan Zetong (Shanghai) Pharmaceutical Co., Ltd, priority 2023, dated 2025).
“Also recorded” adds a separate entry of the source.

Experiments:
hS1P1 = target: T1, hS1P1 (Homo sapiens, UniProt P21453); experiment: Tango β-arrestin recruitment luciferase assay, Tango-hS1P1-CHO; format: cell-based; conditions: β-arrestin recruitment; 20 h drug treatment; top 45 µM, 9 serial 5-fold dilutions; positive control 1 µM BAF-312; read-out: Tango-hS1P1-CHO EC50
T1 construct: expressed in transfected cells; host or cells: CHO
Excerpt: (§1) The Tango assay detects ligand-dependent GPCR activity through the interaction between β-arrestin and GPCRs. […] The NTEV fragment and the tetracycline transactivator (tTA), an artificial transcription factor, are fused at the C-terminus of the GPCR, while the CTEV fragment is fused to human β-arrestin 2. To enhance the stability of the interaction between GPCR and β-arrestin, a short sequence from the C-terminus of the human arginine vasopressin receptor 2 (V2 tail) is inserted between the GPCR and NTEV. The V2 tail contains multiple GRK phosphorylation sites, which strengthen β-arrestin binding upon phosphorylation. The CTEV fragment carries the stabile point mutation S219P and is truncated at residue 221 to remove the autoinhibitory C-terminal tail. Meanwhile, β-arrestin 2 is truncated to lack the entire C-terminal tail (residues 383-410 deleted). This truncation confers robust stimulus-dependent receptor desensitization, thereby improving detection sensitivity compared with wild-type β-arrestin 2. The UAS reporter construct consists of upstream activating sequence (UAS) elements, a minimal CMV promoter, and a tTA-dependent luciferase reporter gene. Therefore, constructing Tango cells requires the co-transfection of the above three plasmids into host cells. Upon GPCR activation and β-arrestin recruitment, the TEV enzyme at the β-arrestin terminus cleaves tTA from the GPCR C-terminus. The released tTA initiates tTA-dependent luciferase transcription, and compound activity is ultimately determined by measuring luminescence intensity.
(§2) • 1) Tango cell line from was digested from the culture dish respectively. After cell counting, the cells were plated at a density of 10,000 cells per well with […] into a white opaque 96-well plate (add 60 µL D'Hanks to the surrounding wells), and incubated overnight (20 h) in a 5% CO2 incubator at 37°C. The cell density will reach approximately 90% the next day. • 2) After 20 h, 30 µL of serially diluted compound solution was added to each well. The control group was supplemented with 30 µL F12K complete medium. Each group had three replicate wells. • 3) Samples were collected after 20 h of drug treatment.
(§3) (All compounds were tested at a final concentration of 45 µM, with 9 serial dilutions at 5-fold intervals. 1 µM BAF-312 was used as the positive control for S1PR1, and 25 µM BAF-312 was used as the positive control for S1PR4.

hS1P4 = target: T2, hS1P4 (Homo sapiens, UniProt O95977); experiment: Tango β-arrestin recruitment luciferase assay, Tango-hS1P4-CHO; format: cell-based; conditions: β-arrestin recruitment; 20 h drug treatment; top 45 µM, 9 serial 5-fold dilutions; positive control 25 µM BAF-312; read-out: Tango-hS1P4-CHO EC50
T2 construct: expressed in transfected cells; host or cells: CHO
T2 sequence (O95977 1-384): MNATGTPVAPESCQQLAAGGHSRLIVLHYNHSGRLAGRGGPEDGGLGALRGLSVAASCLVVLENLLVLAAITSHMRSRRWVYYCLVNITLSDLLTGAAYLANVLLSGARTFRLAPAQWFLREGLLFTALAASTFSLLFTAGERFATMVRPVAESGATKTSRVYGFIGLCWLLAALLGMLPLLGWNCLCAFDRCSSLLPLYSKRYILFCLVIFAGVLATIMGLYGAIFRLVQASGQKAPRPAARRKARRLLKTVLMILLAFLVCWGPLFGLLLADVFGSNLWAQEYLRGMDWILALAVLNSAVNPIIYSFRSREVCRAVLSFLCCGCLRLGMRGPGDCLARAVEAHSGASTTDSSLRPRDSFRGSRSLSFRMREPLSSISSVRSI
Excerpt: as §1, §2, §3

SD rats = experiment: MIA-induced osteoarthritis (OA) model in rats; format: in vivo
Procedure: SD rats, approximately 200 g, male. Purchased from Shanghai Bikai Animal Co., Ltd. Adaptive feeding was conducted for about 7 days.
3.1.1 Anesthesia: the rat was placed into the anesthesia box, the O2 gas source and the gas delivery pump were turned on, and the gas adjustment knob was rotated to set the ratio of O2 to isoflurane at 8:2. The anesthesia depth knob was adjusted: first the indicator was turned to 3 to induce deep anesthesia in the rat; during the subsequent surgical procedure, the indicator was adjusted to 1.5 to maintain anesthesia. The three-way valve was opened to deliver gas into both the anesthesia box and the rat anesthesia mask.
The syringe needle was inserted at a 45° angle to the plateau along the lateral side of the patellar ligament, as shown in the figure below. The Control group is injected with 50 µl of 0.9% sterile normal saline, while the other groups are injected with 50 µl of sterile normal saline containing 3 mg of MIA. After the procedure, the rat was removed, placed in a breeding cage, and irradiated with an incandescent lamp to help restore body temperature until the rat recovers from anesthesia.
The Control group was administered 5% DMSO + 35% PEG400 + 60% normal saline. The compounds were dissolved in a system consisting of 5% dimethyl sulfoxide (DMSO), 35% polyethylene glycol 400 (PEG 400), and 60% normal saline. The drug solutions were prepared on the evening one day before administration.
The rats were acclimated for 1 week and randomly divided into groups, with a total of 10 rats. The Control group was administered 5% DMSO + 35% PEG400 + 60% normal saline, while the other groups were given the test compounds dissolved in 5% DMSO + 35% PEG400 + 60% normal saline.
3.4.1. From Day 1 to Day 14 of the experiment, the rats were administered intragastrically once daily, with a gavage volume of 5 mL/kg. The Control group and Model group were given 5% DMSO + 35% PEG400 + 60% normal saline throughout the experiment, while the other groups were administered the corresponding drugs.
On Day 7 and Day14 of the experiment, behavioral and joint pain tests were performed on the rats. To minimize confounding factors, the tests were conducted 1 hour after administration at a fixed time, preventing variations in the rats' condition at different time points from affecting the experimental results. The rats were allowed to acclimate to the environment for 20 minutes before the start of the experiment. • (1) Observation of walking distance and rearing times within five minutes: the dimensions of the resin box were measured and a paper sheet of the corresponding size was prepared. 1 cm × 1 cm grids were drawn on the paper sheet. The paper sheet was sealed with a transparent tape to prevent damage from rat excrement. Then the paper sheet with 1 cm × 1 cm grids was placed into the transparent resin box, ensuring a flat bottom. A camera device was used to record the walking process and trajectory of the rat within 5 minutes, and the walking distance and rearing times of the rat were counted. • (2) Joint Pain Assessment: After fixing the rat and allowing it to calm down, its knee joint was gently bent. […] The knee joint pain severity in rats is reflected by the scores of leg withdrawal and vocalization. The joint pain assessment was performed every 5 seconds for a total of 5 times.
On Day 15 of the experiment, the rats were anesthetized, and blood was collected from their eyeballs. The serum was left to stand overnight at 4°C, centrifuged at 3600 rpm for 15 minutes at 4°C. The serum was aspirated and stored at -80°C. The rats were sacrificed by cervical dislocation. An incision was made along the knee joint on ice to remove fur, muscle, and other tissues. For each group, 5 rats were used; bilateral knee joints were dissected, and the color, roughness, and integrity of the femoral condyle surface were observed. The knee joint cartilage was then harvested and cryopreserved at -80°C. […]

[1] = DAY7, diclofenac sodium 2.5 mg/kg, vs Model group

T1 sequence (P21453 whole entry): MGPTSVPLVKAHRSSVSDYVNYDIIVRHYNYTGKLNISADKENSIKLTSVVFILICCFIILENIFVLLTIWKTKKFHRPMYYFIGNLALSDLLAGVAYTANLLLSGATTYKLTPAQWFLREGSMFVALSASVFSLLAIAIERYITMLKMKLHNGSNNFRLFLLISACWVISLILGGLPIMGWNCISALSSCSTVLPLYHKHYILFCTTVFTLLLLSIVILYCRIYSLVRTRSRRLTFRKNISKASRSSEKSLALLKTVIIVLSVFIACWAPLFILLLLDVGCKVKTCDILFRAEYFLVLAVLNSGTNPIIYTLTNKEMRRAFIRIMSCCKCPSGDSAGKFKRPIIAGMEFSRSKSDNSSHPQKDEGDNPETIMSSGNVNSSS

Row | EC50 (hS1P1) [µM] | EC50 (hS1P4) [µM] | SMILES | further results
1 | 0.104 | 0.00379 | CCc1cc(/C(C)=N/OCc2ccc(-c3ccccc3)c(F)c2)ccc1CN1CC[C@H](C(=O)O)C1 [Compound 35, (S, E)-1-(2-ethyl-4-(1-(((2-fluoro-[1,1'-biphenyl]-4-yl)methoxy)imino)ethyl)benzyl)pyrrolidine-3-carboxylic acid] | –
2 | 0.103 | 0.00167 | CCc1cc(/C(C)=N/OCc2ccc(-c3ccoc3)c(C)c2)ccc1CN1CC[C@H](C(=O)O)C1 [Compound 36, (S, E)-1-(2-ethyl-4-(1-(((4-(furan-3-yl)-3-methylbenzyl)oxy)imino)ethyl)benzyl)pyrrolidine-3-carboxylic acid] | –
3 | 0.644 | 0.0156 | CCc1cc(/C(C)=N/OCc2ccc(-c3ccncc3)c(C)c2)ccc1CN1CC[C@H](C(=O)O)C1 [Compound 37, (S, E)-1-(2-ethyl-4-(1-(((3-methyl-4-(pyridin-4-yl)benzyl)oxy)imino)ethyl)benzyl)pyrrolidine-3-carboxylic acid] | –
4 | > 10 | 0.269 | CCc1cc(/C(C)=N/OCc2ccc(-c3cnn(C)c3)cc2)ccc1CN1CC[C@H](C(=O)O)C1 [Compound 55] | –
5 | > 10 | 0.0427 ± 0.00228 | CCc1cc(/C(C)=N/OCc2ccc(-c3cncnc3)c(C)c2)ccc1CN1CCC(C(=O)O)CC1 [Compound 82, (E)-1-(2-ethyl-4-(1-(((3-methyl-4-(pyrimidin-5-yl)benzyl)oxy)imino)ethyl)benzyl)piperidine-4-carboxylic acid] | –
6 | > 10 | 0.0174 ± 0.00039 | CCc1cc(/C(C)=N/OCc2ccc(-c3cnc(F)cn3)cc2F)ccc1CN1CC[C@H](C(=O)O)C1 [Compound 87, (S, E)-1-(2-ethyl-4-(1-(((2-fluoro-4-(5-fluoropyrazin-2-yl)benzyl)oxy)imino)ethyl)benzyl)pyrrolidine-3-carboxylic acid] | –
7 | > 10 | > 10 | CCc1cc(/C(C)=N/OCc2ccc(-c3cnc(F)cn3)c(C)c2)ccc1CN1CCCC(C(=O)O)C1 (centres unmarked) [Compound 92, (E)-1-(2-ethyl-4-(1-(((3-methyl-4-(5-fluoropyrazin-2-yl)-benzyl)oxy)imino)ethyl)benzyl)piperidine-3-carboxylic acid] | –
8 | – | – | O=C(O)Cc1ccccc1Nc1c(Cl)cccc1Cl [diclofenac sodium, reference compound] | five-minute walking distance (SD rats; [1]): increased significantly; pain index (SD rats; [1]): significantly decreased; gross observation of knee joint femoral condyle cartilage (SD rats; Day 15 dissection, 5 rats per group): knee cartilage in most rats became smooth and glossy; also recorded: cartilage of most rat knee joints became smooth and bright; serum IL-10 level (SD rats; Elisa, vs Model group): significantly increased; OARSI score (severity of knee osteoarthritis) (SD rats; diclofenac sodium 2.5 mg/kg, vs Model group): significantly milder than that in the Model group; Safranin O-Fast Green staining of knee joints (SD rats; vs Model group): enhanced Safranin O staining
